Measured values reported in ChEMBL document CHEMBL1156945, “Discovery of a novel selective PPARgamma modulator from (-)-Cercosporamide derivatives” (Bioorg Med Chem Lett, 2010).
Activity calls are given as the source filed them. The calls are words filed in the database; no cut-off is given here.

Tests used:
[1] = molecular target: T1, Peroxisome proliferator-activated receptor gamma (Homo sapiens, UniProt P37231)
T1 sequence (P37231 whole entry): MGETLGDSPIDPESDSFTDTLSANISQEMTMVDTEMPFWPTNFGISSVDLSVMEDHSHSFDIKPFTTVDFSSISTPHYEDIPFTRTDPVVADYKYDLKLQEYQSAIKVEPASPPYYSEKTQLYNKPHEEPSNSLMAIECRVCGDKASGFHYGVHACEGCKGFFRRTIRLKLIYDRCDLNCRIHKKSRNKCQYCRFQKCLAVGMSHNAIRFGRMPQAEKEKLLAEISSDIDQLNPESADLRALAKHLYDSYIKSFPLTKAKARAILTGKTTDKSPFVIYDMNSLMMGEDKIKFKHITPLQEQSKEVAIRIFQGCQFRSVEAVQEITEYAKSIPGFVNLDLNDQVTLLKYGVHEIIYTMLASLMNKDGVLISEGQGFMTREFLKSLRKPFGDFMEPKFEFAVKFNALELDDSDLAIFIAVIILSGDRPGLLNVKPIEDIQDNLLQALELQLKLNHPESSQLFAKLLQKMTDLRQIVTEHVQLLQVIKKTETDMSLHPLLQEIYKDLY
Description: (§1) Agonist activity at PPARgamma assessed as transcriptional activation

[2] = molecular target: T1, Peroxisome proliferator-activated receptor gamma; assay: Inhibition of PPARgamma assessed as transcriptional activity
[3] = species on record: Mus musculus; assay: Antihyperglycemic activity in KK/Ta mouse assessed as reduction in food intake at 0.01% in diet after 7 days relative to control; format: functional; parameters: scale not given: the % may be the effect or the level left
[4] = species on record: Mus musculus; assay: Antihyperglycemic activity in KK/Ta mouse assessed as reduction in plasma glucose level at 0.01% in diet relative to control; format: functional; parameters: scale not given: the % may be the effect or the level left
[5] = species on record: Mus musculus; assay: Antihyperglycemic activity in KK/Ta mouse assessed as reduction in body weight at 0.01% in diet after 7 days relative to control; format: functional; parameters: scale not given: the % may be the effect or the level left
[6] = molecular target: T1, Peroxisome proliferator-activated receptor gamma; remark: listed apart in the source
Description: as §1

[7] = molecular target: T2, Peroxisome proliferator-activated receptor delta (Homo sapiens) (UniProt Q03181); assay: Agonist activity at PPARdelta by transactivation assay; format: functional
T2 sequence (whole entry): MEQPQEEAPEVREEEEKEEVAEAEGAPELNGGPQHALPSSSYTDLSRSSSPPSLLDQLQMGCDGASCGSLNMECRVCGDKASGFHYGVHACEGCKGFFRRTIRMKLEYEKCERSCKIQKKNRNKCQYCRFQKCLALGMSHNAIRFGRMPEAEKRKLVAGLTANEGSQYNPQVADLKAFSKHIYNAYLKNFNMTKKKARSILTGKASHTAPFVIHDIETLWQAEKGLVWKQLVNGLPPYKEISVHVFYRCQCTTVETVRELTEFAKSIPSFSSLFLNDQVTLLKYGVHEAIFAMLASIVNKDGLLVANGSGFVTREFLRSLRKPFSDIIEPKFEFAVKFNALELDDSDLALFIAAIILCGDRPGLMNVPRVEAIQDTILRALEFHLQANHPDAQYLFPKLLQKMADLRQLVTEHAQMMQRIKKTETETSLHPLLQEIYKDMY

[8] = system: Mus musculus; assay: Toxicity in db/db mouse assessed as heart weight administered at 0.1% in diet (Rvb=102+/-4.8 mg); format: organism-based; settings: in vivo, po
[9] = system: Mus musculus; assay: Toxicity in db/db mouse assessed as heart weight administered at 0.01% in diet (Rvb=102+/-4.8 mg); format: organism-based; settings: in vivo, po
[10] = molecular target: T3, Peroxisome proliferator-activated receptor alpha (Homo sapiens) (UniProt Q07869); assay: Agonist activity at PPARalpha by transactivation assay; format: functional
T3 sequence (whole entry): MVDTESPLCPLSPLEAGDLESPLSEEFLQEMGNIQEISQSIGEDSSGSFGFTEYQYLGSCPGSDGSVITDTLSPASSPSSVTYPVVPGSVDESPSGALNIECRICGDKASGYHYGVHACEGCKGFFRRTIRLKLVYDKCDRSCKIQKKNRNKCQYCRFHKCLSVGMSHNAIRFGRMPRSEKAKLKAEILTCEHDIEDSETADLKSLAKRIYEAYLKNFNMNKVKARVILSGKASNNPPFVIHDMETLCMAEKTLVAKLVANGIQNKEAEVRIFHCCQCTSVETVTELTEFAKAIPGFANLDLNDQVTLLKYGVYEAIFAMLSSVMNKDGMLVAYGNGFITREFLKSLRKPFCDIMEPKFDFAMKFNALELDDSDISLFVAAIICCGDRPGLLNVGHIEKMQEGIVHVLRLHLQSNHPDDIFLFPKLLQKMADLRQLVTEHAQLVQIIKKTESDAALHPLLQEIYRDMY

[11] = molecular target: T1, Peroxisome proliferator-activated receptor gamma; assay: Binding affinity to PPARgamma

Compound	EC50 [1] [nM]	also measured
COC1Oc2cc(O)c3c(c2C(=O)N1C(=O)NCc1ccco1)OC1=CC(O)=C(C(C)=O)C(=O)[C@]13C (stereo partly drawn)	560	IC50 [2]: 13000 nM
CC(=O)C1=C(O)C=C2Oc3c4c(cc(O)c3[C@]2(C)C1=O)OC(C)(C)NC4=O	–	Activity [3]: 78%; Activity [4]: 56%; Activity [5]: 102%
COc1cc(O)c2c(c1C(=O)NCc1ccccc1)OC1=CC(O)=C(C(C)=O)C(=O)[C@]12C	220	Activity [3]: 100%; Activity [4]: 69%; Activity [5]: 101%
COC1Oc2cc(O)c3c(c2C(=O)N1C(=O)NCc1ccccc1[N+](=O)[O-])OC1=CC(O)=C(C(C)=O)C(=O)[C@]13C (stereo partly drawn)	1600	–
COC1Oc2cc(O)c3c(c2C(=O)N1C(=O)NCc1ccccn1)OC1=CC(O)=C(C(C)=O)C(=O)[C@]13C (stereo partly drawn)	–	EC50 [6]: Not Active
COC1Oc2cc(O)c3c(c2C(=O)N1C(=O)NCc1cccc([N+](=O)[O-])c1)OC1=CC(O)=C(C(C)=O)C(=O)[C@]13C (stereo partly drawn)	2400	–
COC1Oc2cc(O)c3c(c2C(=O)N1C(=O)NCc1cccc2ccccc12)OC1=CC(O)=C(C(C)=O)C(=O)[C@]13C (stereo partly drawn)	180	Activity [7]: inactive; Activity [8]: 103.8 mg; Activity [9]: 102.8 mg; Activity [10]: inactive; Ki [11]: 82 nM
COC1Oc2cc(O)c3c(c2C(=O)N1C(=O)NCc1ccc([N+](=O)[O-])cc1)OC1=CC(O)=C(C(C)=O)C(=O)[C@]13C (stereo partly drawn)	6000	–
CC(=O)C1=C(O)C=C2Oc3c4c(cc(O)c3[C@]2(C)C1=O)OC(C)(C)N(Cc1ccccc1)C4=O	–	Activity [3]: 74%; Activity [4]: 55%; Activity [5]: 103%
COC1Oc2cc(O)c3c(c2C(=O)N1C(=O)NCc1ccccc1Cl)OC1=CC(O)=C(C(C)=O)C(=O)[C@]13C (stereo partly drawn)	280	–
COc1ccc(CNC(=O)N2C(=O)c3c(cc(O)c4c3OC3=CC(O)=C(C(C)=O)C(=O)[C@]34C)OC2OC)cc1 (stereo partly drawn)	1700	–

Further lines, with some results ahead:

EC50 [1] [nM]	Compound	also measured
4400	COC1Oc2cc(O)c3c(c2C(=O)N1C(=O)NCc1ccsc1)OC1=CC(O)=C(C(C)=O)C(=O)[C@]13C (stereo partly drawn)	–
3800	COc1cccc(CNC(=O)N2C(=O)c3c(cc(O)c4c3OC3=CC(O)=C(C(C)=O)C(=O)[C@]34C)OC2OC)c1 (stereo partly drawn)	–
3200	COC1Oc2cc(O)c3c(c2C(=O)N1C(=O)NCc1ccoc1)OC1=CC(O)=C(C(C)=O)C(=O)[C@]13C (stereo partly drawn)	–
770	COC1Oc2cc(O)c3c(c2C(=O)N1C(=O)NCc1ccc(Cl)cc1)OC1=CC(O)=C(C(C)=O)C(=O)[C@]13C (stereo partly drawn)	–
3800	COC1Oc2cc(O)c3c(c2C(=O)N1C(=O)NCc1cc2ccccc2s1)OC1=CC(O)=C(C(C)=O)C(=O)[C@]13C (stereo partly drawn)	–
2300	COC1Oc2cc(O)c3c(c2C(=O)N1C(=O)NCc1cc2ccccc2o1)OC1=CC(O)=C(C(C)=O)C(=O)[C@]13C (stereo partly drawn)	–
6700	COC1Oc2cc(O)c3c(c2C(=O)N1C(=O)NCc1cccc(Cl)c1)OC1=CC(O)=C(C(C)=O)C(=O)[C@]13C (stereo partly drawn)	–
11000	COC1Oc2cc(O)c3c(c2C(=O)N1C(=O)NCc1cccnc1)OC1=CC(O)=C(C(C)=O)C(=O)[C@]13C (stereo partly drawn)	–
1200	COC1Oc2cc(O)c3c(c2C(=O)N1C(=O)NCc1cccs1)OC1=CC(O)=C(C(C)=O)C(=O)[C@]13C (stereo partly drawn)	–
